Measured values taken from US20060287251A1, “Combination therapy for glycaemic control” (priority 2003, published 2006).

Key:
[1] = target: T1, plasma DPIV activity (Rattus norvegicus, UniProt P14740); test: Plasma DPIV inhibiting activity after intravasal and oral administration to Wistar rats; type: in vivo; conditions: 100 mg/kg b.w. vs. placebo, oral and intra-vasal administration
T1 construct: from tissue; host or cells: plasma of male Wistar rats
Experimental: Male Wistar rats (Shoe: Wist(Sho)) with a body weight ranging between 250 and 350 g were purchased from Tierzucht Schönwalde (Schönwalde, Germany). Animals were single-caged under conventional conditions with controlled temperature (22±2° C.) on a 12/12 hours light/dark cycle (light on at 06:00 AM). Standard pelleted chow (ssniff® Soest, Germany) and tap water acidified with HCl were allowed ad libitum. After ≧one week of adaptation at the housing conditions, catheters were implanted into the carotid artery of Wistar rats under general anaesthesia (i.p. injection of 0.25 ml/kg b.w. Rompun®[2%], BayerVital, Germany and 0.5 ml/kg b.w. Ketamin 10, Atarost GmbH & Co., Twistringen, Germany). The animals were allowed to recover for one week. The catheters were flushed with heparin-saline (100 IU/ml) three times per week. In case of catheter dysfunction, a second catheter was inserted into the contra-lateral carotid artery of the respective rat. After one week of recovery from surgery, this animal was reintegrated into the study. In case of dysfunction of the second catheter, the animal was withdrawn from the study. […]
Statistical evaluations and graphics were performed with PRISM® 3.02 (GraphPad Software, Inc.). All parameters were analysed in a descriptive manner including mean and SD.

[2] = In vivo inactivation (degradation) after oral administration to Wistar rats, LC/MS; conditions: LC/MS of plasma
Experimental: Glutaminyl thiazolidine was administered to Wistar rats orally. After application of placebo or glutaminyl thiazolidine, arterial blood samples were taken at 2.5, 5, 7.5, 10, 15, 20, 40, 60 and 120 min from the carotid catheter of the conscious unrestrained rats to determine the formation of degradation products of glutaminyl thiazolidine. For analysis, simple solid phase extraction procedure on C18 cartridges was used to isolate the compounds of interest from the plasma. The extracts were analysed using reversed-phase liquid chromatography on Lichrospher 60 RP Select B column hyphenated with tandem mass spectrometry operating in the APCI positive mode. An internal standard method was used for quantification.

[3] = target: T2, dipeptidyl peptidase IV from porcine kidney (Sus scrofa, UniProt P22411); test: Ki-determination, DP IV from porcine kidney; type: biochemical; conditions: substrate glycylprolyl-4-nitroaniline, 30 °C, pH 7.6, competitive inhibition
T2 construct: dipeptidyl peptidase IV from porcine kidney with a specific activity against glycylprolyl-4-nitroaniline of 37.5 U/mg; from tissue; host or cells: porcine kidney
T2 sequence (P22411 whole entry): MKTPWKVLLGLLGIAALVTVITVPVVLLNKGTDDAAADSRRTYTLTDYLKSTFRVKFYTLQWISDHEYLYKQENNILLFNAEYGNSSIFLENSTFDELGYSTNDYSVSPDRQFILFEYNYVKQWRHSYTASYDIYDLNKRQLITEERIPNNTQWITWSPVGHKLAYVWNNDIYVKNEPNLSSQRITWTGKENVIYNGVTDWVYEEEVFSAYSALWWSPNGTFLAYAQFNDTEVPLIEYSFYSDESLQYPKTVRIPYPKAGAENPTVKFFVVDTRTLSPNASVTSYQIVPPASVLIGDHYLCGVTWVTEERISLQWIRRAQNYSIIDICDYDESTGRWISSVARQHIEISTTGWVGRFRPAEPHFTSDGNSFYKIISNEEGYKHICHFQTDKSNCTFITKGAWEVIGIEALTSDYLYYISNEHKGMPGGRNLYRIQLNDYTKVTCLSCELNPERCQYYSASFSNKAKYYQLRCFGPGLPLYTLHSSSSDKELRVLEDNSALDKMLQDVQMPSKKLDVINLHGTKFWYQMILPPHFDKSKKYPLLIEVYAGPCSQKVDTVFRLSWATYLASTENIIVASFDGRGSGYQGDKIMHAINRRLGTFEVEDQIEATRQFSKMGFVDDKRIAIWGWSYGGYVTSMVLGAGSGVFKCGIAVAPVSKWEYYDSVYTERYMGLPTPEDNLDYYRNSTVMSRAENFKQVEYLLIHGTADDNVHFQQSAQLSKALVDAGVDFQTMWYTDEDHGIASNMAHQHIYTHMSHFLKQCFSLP
Experimental: For Kidetermination of glutaminyl pyrrolidine and glutaminyl thiazolidine, dipeptidyl peptidase IV from porcine kidney with a specific activity against glycylprolyl-4-nitroaniline of 37.5 U/mg and an enzyme concentration of 1.41 mg/mL in the stock solution was used.
100 μL glutaminyl pyrrolidine or glutaminyl thiazolidine in a concentration range of 1*10^−5 -1*10^−7 M (glutaminyl pyrrolidine) and 1*10^−6 M-1*10^−8 M (glutaminyl thiazolidine) respectively were admixed with 50 μL glycylprolyl-4-nitroaniline in different concentrations (0.4 mM, 0.2 mM, 0.1 mM, 0,05 mM) and 100 μl HEPES (40 mM, pH7.6; ion strength=0.125). The assay mixture was pre-incubated at 30 ° C. for 30 min. After pre-incubation, 20 μL DPIV (1:600 diluted) were added and measurement of yellow color development due to 4-nitroaniline release was performed at 30° C. and λ=405 nm for 10 min using a plate reader (HTS7000 plus, Applied Biosystems, Weiterstadt, Germany). The Ki-values were calculated using Graphit 4.0.15 (Erithacus Software, Ltd, UK) based on a competitive inhibition of DPIV by glutaminyl pyrrolidine or glutaminyl thiazolidine.

T1 sequence (P14740 38-767 limits assumed): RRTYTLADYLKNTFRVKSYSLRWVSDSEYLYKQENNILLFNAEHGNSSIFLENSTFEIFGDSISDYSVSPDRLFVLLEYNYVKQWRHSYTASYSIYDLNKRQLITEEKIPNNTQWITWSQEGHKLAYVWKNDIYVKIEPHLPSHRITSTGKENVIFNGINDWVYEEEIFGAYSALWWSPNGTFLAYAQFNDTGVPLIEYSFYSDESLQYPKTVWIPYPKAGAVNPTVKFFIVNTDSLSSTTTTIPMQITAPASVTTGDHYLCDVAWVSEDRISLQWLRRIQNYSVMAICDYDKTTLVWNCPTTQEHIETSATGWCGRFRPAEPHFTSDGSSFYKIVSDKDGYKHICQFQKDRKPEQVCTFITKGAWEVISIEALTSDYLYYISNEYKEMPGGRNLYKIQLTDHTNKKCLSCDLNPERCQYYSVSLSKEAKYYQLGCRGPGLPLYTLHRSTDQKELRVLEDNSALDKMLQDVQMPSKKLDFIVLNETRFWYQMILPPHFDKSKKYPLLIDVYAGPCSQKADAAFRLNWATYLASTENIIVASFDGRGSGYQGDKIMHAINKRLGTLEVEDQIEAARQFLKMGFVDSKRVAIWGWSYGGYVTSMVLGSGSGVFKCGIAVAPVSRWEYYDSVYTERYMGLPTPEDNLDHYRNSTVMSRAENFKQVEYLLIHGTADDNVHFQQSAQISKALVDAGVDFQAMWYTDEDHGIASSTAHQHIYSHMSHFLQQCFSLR

Row | Structure (SMILES) | plasma DPIV activity [1] | degradation product in vivo [2] | Ki [3]
1 | NC(=O)CC[C@H](N)C(=O)N1CCCC1 [glutaminyl pyrrolidine] | inhibited plasma DPIV activity | pyroglutaminyl pyrrolidine | 1300 nM
2 | NC(=O)CC[C@H](N)C(=O)N1CCSC1 [glutaminyl thiazolidine] | inhibited plasma DPIV activity | pyroglutaminyl thiazolidine | 312 nM
